Laboratory results: US20050096224A1 (priority 2002, published 2005)

System: G. pallida
Assay: Test A: control of G. pallida by oxamyl on potted potato plants
Assay type: in vivo, Globodera pallida
Conditions: serial small doses at 4-day, 7-day or 14-day intervals over the hatching period vs equivalent dose (3.5, 4.5 or 5.5 kg ai/ha) in one application at planting; 70 days; initial 10 or 50 eggs/g of soil; potato in pots
Source text: G. pallida is the more pernicious pest of potatoes. Studies have been conducted with Composition A comprising oxamyl as described above.
The test units consisted of large diameter pots each containing one potato plant, planted in soil amended with eggs of G. pallida at either 24 cysts per pot (estimated to be about 10 eggs/g of soil) or 120 cysts per pot (estimated to be about 50 eggs/g of soil). These pest burdens represent a level of infestation that would require treatment in order to prevent crop damage and potential multiplication of the pest (10 eggs/g of soil) and substantial yield loss (50 eggs/g of soil).
Composition A was introduced into the test units diluted in a constant volume of water. […] The dose at each application was applied in the same volume of water and in equal incremental quantities. […] The number of cysts attached to the roots per gram of root mass (washed free of soil) was determined at 70 days (10 weeks) after commencement of the trial. […]

CNC(=O)ON=C(SC)C(=O)N(C)C [oxamyl, N,N-dimethyl-2-methylcarbamoyloxyimino-2-(methylthio)acetamide]
control of cyst production by G. pallida (number of cysts attached to the roots per gram of root mass): superior control
